Assays:
MDA-MB-231 cells = assay: Matrigel invasion assay; format: cell-based; details: MDA-MB-231 cells pretreated with inhibitors for 24 h; control 69.07 ± 5.26%
Experimental: Figure 5 Effects of compounds 1–3 and JG26 on cancer cell invasion. MDA-MB-231 cells were pretreated with inhibitors for 24 h prior to the assay. Boxplot of invaded cells in %. Results are obtained from three independent experiments with counting of five randomly chosen viewing fields. One-way ANOVA was performed to determine statistical significance with * p < 0.05 and *** p < 0.001. […]
Thincerts of […] pore size, translucent (Greiner BioOne) were transferred into 24-well plates. Each insert was loaded with 75 µL Matrigel (BD Biosciences), 1:1 diluted with serum-free medium DMEM.
After 1 hour, thincerts were turned upside down and 25000 MDA-MB-231 cells, pretreated with vehicle (DMSO) or 20 µM inhibitors (JG26 and compounds 1-3 in DMSO) for 24 hours in DMEM/0.5 % FCS were seeded on the lower side and incubated for 3-4 hours so that cell can adhere to the membrane. To induce cell invasion, DMEM/20% FCS was applied to the upper chamber in order to […]
form a concentration gradient. After 18 hours, cells were fixed with 3.7 % paraformaldehyde and stained with 4’,6-Diamidin-2-phenylindol (DAPI) to detect cell nuclei. Quantification of cell invasion was performed using a confocal microscope by stacked imaging. Cell nuclei present in the upper and the lower chamber were counted in 5 randomly chosen viewing fields and the amount of invasion was calculated in percent as the ratio between invaded cells/non-invaded cells x 100. Experiments were repeated 3 times, counting 5 random viewing fields per well, respectively.
Protein extraction and Western Blot analysis
After 48 h, total protein extraction was performed by detaching the cells with a cell scraper. Cells were washed with PBS, resuspended in 50 μL RIPA (50 mM HEPES pH 7.4; 150 mM NaCl; 1% (v/v) NP-40; 0.5% (w/v) Natriumdeoxycholate; 0.1% (w/v) SDS; 10 mM Phenantrolin; 10 mM EDTA; PierceTM Protease Inhibitor Mini Tablets, EDTA-free, Thermo Scientific; PierceTM Phosphatase Inhibitor Mini Tablets, Thermo Scientific) and incubated for 30 min on ice. […]
2% (w/v) SDS; 10% (w/v) Glycerol; 5% (v/v) ß-Mercaptoethanol; 0.01% (w/v) Bromphenol-Blue) for 5 min. The proteins were separated by 10% SDS-PAGE and subsequently transferred on a nitrocellulose membrane (GE Healthcare). The membrane was then blocked with 5% (w/v) milk powder (MP) in TBST (50 mM Tris, pH 7.5; 150 mM NaCl; 0.1% (w/v) Tween-20) for 1 h and probed with the following primary antibodies: anti-beta Tubulin (NB600-936, Novus Biological, 1:2000), anti- […]
Cell Signaling, 1:2000) and anti-pAkt (4060, Cell Signaling, 1:2000) at 4°C overnight. After washing the 3x with TBST, the membrane was incubated with horseradish peroxidase-conjugated secondary antibodies for 1 h (abcam, 1:5000) followed by a repeated washing step. […]

ADAM17 = biological target: T1, ADAM17 (Homo sapiens, UniProt P78536); assay: ADAM17 fluorometric inhibition assay; format: biochemical; details: recombinant enzyme, mean of three independent experiments in duplicate, read-out: In vitro inhibitory activity IC50 on ADAM17
T1 construct: kind gift of Franka Scharfenberg, University of Kiel
Experimental: The newly synthesized bivalent derivatives 1–3 were then tested in vitro on human recombinant ADAM8 in comparison with JG26 by a fluorometric assay. The inhibitory activity against a panel of MMPs and ADAM10/17 was determined as well to assess their selectivity profile.
(RFU). Percent of inhibition was calculated from control reactions without the inhibitor. IC50 was determined using the formula: v i/v o = 1/(1 + [I]/ IC50), where v i is the initial velocity of substrate cleavage in the presence of the inhibitor at concentration [I] and v o is the initial velocity in the absence of the inhibitor. Results were analyzed using SoftMax Pro software (version 5.4.3, Molecular Devices, Sunnyvale, CA) and Prism Software version 5.0 (GraphPad Software, Inc., La Jolla, CA, USA).
ADAM8 and ADAM17 inhibition assays
Recombinant ADAM8 and ADAM17 (kind gift of Franka Scharfenberg, University of Kiel) were diluted in assay buffer (25 mM Tris HCl, pH 8.0. 6x10-4 % Brij, 10 mM CaCl2, 10 mM ZnCl2) to a working concentration of 250 ng and incubated with inhibitors for 45 min in a total volume of 50 µL.
The fluorescent substrate PepDAB1310 was added in a concentration of 10 µM (in a volume of 50 µL). […]

T1 sequence (P78536 215-824, species assumed): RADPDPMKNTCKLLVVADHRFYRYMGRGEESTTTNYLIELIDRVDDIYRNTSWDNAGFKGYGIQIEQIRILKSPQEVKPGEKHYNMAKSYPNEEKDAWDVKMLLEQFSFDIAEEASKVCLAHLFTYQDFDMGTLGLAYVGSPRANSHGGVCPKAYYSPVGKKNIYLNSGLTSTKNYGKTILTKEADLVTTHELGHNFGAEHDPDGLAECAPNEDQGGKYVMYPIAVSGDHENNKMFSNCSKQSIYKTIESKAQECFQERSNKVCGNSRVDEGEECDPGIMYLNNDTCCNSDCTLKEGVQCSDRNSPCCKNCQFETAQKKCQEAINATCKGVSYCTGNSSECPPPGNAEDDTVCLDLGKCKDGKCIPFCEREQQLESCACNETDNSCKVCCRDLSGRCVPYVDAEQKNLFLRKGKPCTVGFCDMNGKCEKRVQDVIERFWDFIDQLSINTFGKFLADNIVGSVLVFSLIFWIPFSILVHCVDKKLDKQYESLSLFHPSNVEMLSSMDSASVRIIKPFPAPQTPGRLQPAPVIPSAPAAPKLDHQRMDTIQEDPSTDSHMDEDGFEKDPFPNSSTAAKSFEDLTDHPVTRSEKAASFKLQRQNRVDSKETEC

SMILES	Invaded cells (MDA-MB-231 cells)	IC50 (ADAM17)
O=C(CCCNC(=O)c1cccc(C(=O)NCCCC(=O)NCCC[C@@H](NS(=O)(=O)c2ccc(OCc3cc(Br)cc(Br)c3)cc2)C(=O)NO)c1)NCCC[C@@H](NS(=O)(=O)c1ccc(OCc2cc(Br)cc(Br)c2)cc1)C(=O)NO [Compound 1]	57.25 ± 7.24%	52 nM
O=C(NCCC[C@@H](NS(=O)(=O)c1ccc(OCc2cc(Br)cc(Br)c2)cc1)C(=O)NO)c1cccc(C(=O)NCCC[C@@H](NS(=O)(=O)c2ccc(OCc3cc(Br)cc(Br)c3)cc2)C(=O)NO)c1 [Compound 2]	50.8 ± 11.4%	24 nM
O=C(NCCC[C@@H](NS(=O)(=O)c1ccc(OCc2cc(Br)cc(Br)c2)cc1)C(=O)NO)NCCC[C@@H](NS(=O)(=O)c1ccc(OCc2cc(Br)cc(Br)c2)cc1)C(=O)NO [Compound 3]	52.9 ± 9.14%	55 nM
NC(=O)NCCC[C@@H](NS(=O)(=O)c1ccc(OCc2cc(Br)cc(Br)c2)cc1)C(=O)NO [JG26, reference compound]	59.87 ± 12.27%	1.9 nM

Source: PMC8805605, “Discovery of Dimeric Arylsulfonamides as Potent ADAM8 Inhibitors” (ACS Medicinal Chemistry Letters, 2021)
